pIC50: −log10 of the molar value. ≈ marks a conversion by molar mass, not a printed value.
What was measured:
[1] = Cytotoxicity against human Re-01 cells assessed as decrease in cell viability; type: functional, cell-based
[2] = Cytotoxicity against human Bre01 cells assessed as decrease in cell viability; type: functional, cell-based
[3] = Cytotoxicity against human Col-06 cells assessed as decrease in cell viability; type: functional, cell-based
[4] = test system: NIH3T3; experiment: Cytotoxicity against mouse NIH/3T3 cells assessed as decrease in cell viability; type: functional, cell-based
[5] = test system: Jurkat; experiment: Cytotoxicity against human Jurkat cells assessed as decrease in cell viability; type: functional, cell-based
[6] = Cytotoxicity against human SK-MEL-8 cells assessed as decrease in cell viability; type: functional, cell-based
[7] = Cytotoxicity against human OVCAR1 cells assessed as decrease in cell viability; type: functional, cell-based
[8] = test system: MDCK; experiment: Cytotoxicity against MDCK cells assessed as decrease in cell viability; type: functional, cell-based; conditions: Canis lupus familiaris
[9] = test system: HeLa; experiment: Cytotoxicity against human HeLa cells assessed as decrease in cell viability; type: functional, cell-based
[10] = test system: HCT-116; experiment: Cytotoxicity against human HCT116 cells assessed as decrease in cell viability; type: functional, cell-based
[11] = Half life of the compound; type: physicochemical
[12] = test system: KB; experiment: Cytotoxicity against human KB cells assessed as decrease in cell viability by MTT assay; type: functional, cell-based
[13] = test system: HL-60; experiment: Cytotoxicity against human HL60 cells assessed as decrease in cell viability by MTT assay; type: functional, cell-based
[14] = test system: HL-60; experiment: Cytotoxicity against human HL60 cells assessed as decrease in cell viability; type: functional, cell-based
[15] = Toxicity in rat ear inflammation model; conditions: in vivo
[16] = test system: BGC-823; experiment: Cytotoxicity against human BGC823 cells assessed as decrease in cell viability by MTT assay; type: functional, cell-based
[17] = test system: MCF7; experiment: Cytotoxicity against human MCF7 cells assessed as decrease in cell viability by MTT assay; type: functional, cell-based
[18] = test system: HeLa; experiment: Cytotoxicity against human HeLa cells assessed as decrease in cell viability by MTT assay; type: functional, cell-based
[19] = test system: MCF7; experiment: Cytotoxicity against human MCF7 cells assessed as decrease in cell viability after 72 hrs by MTT assay; type: functional, cell-based; conditions: MCF7, 72 h
[20] = test system: MKN-28; experiment: Cytotoxicity against human MKN28 cells assessed as decrease in cell viability after 72 hrs by MTT assay; type: functional, cell-based; conditions: MKN-28, 72 h
[21] = test system: A549; experiment: Cytotoxicity against human A549 cells assessed as decrease in cell viability after 72 hrs by MTT assay; type: functional, cell-based; conditions: A549, 72 h
[22] = test system: P388; experiment: Cytotoxicity against mouse P388 cells assessed as decrease in cell viability after 72 hrs by MTT assay; type: functional, cell-based; conditions: P388, 72 h
[23] = test system: HL-60; experiment: Cytotoxicity against human HL60 cells assessed as decrease in cell viability after 72 hrs by MTT assay; type: functional, cell-based; conditions: HL-60, 72 h

Work on CC(C)[C@]12O[C@H]1[C@@H]1O[C@]13[C@]1(O[C@H]1C[C@H]1C4=C(CC[C@@]13C)C(=O)OC4)[C@@H]2O [TRIPTOLIDE] yielded an IC50 [1] of 0.03 µg/mL (≈ 0.0832 µM), an IC50 [2] of 0.04 µg/mL (≈ 0.111 µM) and an IC50 [3] of 0.02 µg/mL (≈ 0.0555 µM). For the same compound, the pIC50 [4] was 7.30, the pIC50 [5] was 6.85 and the IC50 [6] was 0.02 µg/mL (≈ 0.0555 µM). It also gave an IC50 [7] of 0.006 µg/mL (≈ 0.0166 µM), a pIC50 [8] of 5.92 and a pIC50 [9] of 7.06. It also gave a pIC50 [10] of 8.33.
Compound CC(C)[C@]12O[C@H]1[C@@H]1O[C@]13[C@]1(O[C@H]1C[C@H]1C4=C(CC[C@@]13C)C(=O)OC4)[C@@H]2OCOP(=O)([O-])[O-].[Na+].[Na+] [MINNELIDE] has a half-life [11] of 2 min.
With CC(C)[C@]1(O)[C@H](N=C=S)[C@@H]2O[C@]23[C@]2(O[C@H]2C[C@H]2C4=C(CC[C@@]23C)C(=O)OC4)[C@@H]1O the IC50 [1] was 0.06 µg/mL (≈ 0.143 µM), the IC50 [2] was 0.055 µg/mL (≈ 0.131 µM) and the IC50 [3] was 0.03 µg/mL (≈ 0.0715 µM). It also gave an IC50 [6] of 0.09 µg/mL (≈ 0.215 µM) and an IC50 [7] of 0.02 µg/mL (≈ 0.0477 µM).
In the case of CC(C)[C@]12O[C@H]1[C@@H]1O[C@]13[C@]1(O[C@H]1C[C@H]1C4=C(CC[C@@]13C)C(=O)O[C@H]4O)[C@@H]2O, the pIC50 [12] was 4.33 and the pIC50 [13] was 4.28.
With CC(C)[C@]12O[C@H]1[C@@H]1O[C@]13[C@]1(O[C@H]1C[C@H]1C4=C(CC[C@@]13C)C(=O)OC4)[C@@H]2NC=O the pIC50 [10] was 6.45.
CC(C)[C@]12O[C@H]1[C@@H]1O[C@]13[C@]1(O[C@H]1C[C@H]1C4=C(CC[C@@]13C)C(=O)OC4)[C@@H]2N showed a pIC50 [10] of 6.11.
For CC(C)C1=C[C@H]2O[C@]23[C@@]2(C)CCC4=C(COC4=O)[C@@H]2C[C@@H]2O[C@@]23C1=O, the pIC50 [14] was 4.80 and the pIC50 [5] was 4.80.
With C[C@]12CCC3=C(COC3=O)[C@@H]1C[C@@H]1O[C@@]13[C@H](O)[C@@]1(CCO)O[C@H]1[C@@H]1O[C@@]132 the pIC50 [10] was 7.13.
C[C@]12CCC3=C(COC3=O)[C@@H]1C[C@@H]1O[C@@]13C(=O)[C@H]1O[C@H]1[C@@H]1O[C@]123 gave a pIC50 [10] of 6.27.
CC(C)[C@]1(O)[C@H](O)[C@@H]2O[C@]23[C@]2(O[C@H]2C[C@H]2C4=C(CC[C@@]23C)C(=O)OC4)[C@@H]1O gave an LD50 [15] of over 500 mg/kg.
For C[C@]12CCC3=C(COC3=O)[C@@H]1C[C@@H]1O[C@@]13[C@@H](O)[C@@]1(CCO)O[C@H]1[C@@H]1O[C@@]132, the pIC50 [10] was 7.15.
With CC(C)[C@]12O[C@H]1[C@@H]1O[C@@]13[C@@]1(C)[C@H](O)CC4=C(COC4=O)[C@@H]1C[C@@H]1O[C@@]13[C@@H]2O the pIC50 [16] was 5.12, the pIC50 [12] was 6.92 and the pIC50 [13] was 7.15. It also gave a pIC50 [17] of 6.06 and a pIC50 [18] of 6.49.
C[C@@H]([C@@H]1CO1)[C@]12O[C@H]1[C@@H]1O[C@@]13[C@@]1(C)CCC4=C(COC4=O)[C@@H]1C[C@@H]1O[C@@]13C2=O gave a pIC50 [4] of 7.40.
For CC(C)[C@]12O[C@H]1[C@@H]1O[C@]13[C@]1(O[C@H]1C[C@@]1(O)C4=C(CC[C@]31C)C(=O)OC4)[C@@H]2O, the pIC50 [19] was 9.70 to 10.40, the pIC50 [20] was 9.70 to 10.40 and the pIC50 [21] was 9.70 to 10.40. For the same compound, the pIC50 [16] was 5.82, the pIC50 [12] was 6.52 and the pIC50 [13] was 6.33. The pIC50 [22] was 9.70 to 10.40, the pIC50 [17] was 5.98 and the pIC50 [18] was 6.47. It also gave a pIC50 [23] of 9.70 to 10.40.
Compound CC(C)C1=C[C@@H]2O[C@@]23[C@@]2(C)CCC4=C(COC4=O)[C@@H]2C[C@@H]2O[C@@]23C1=O has a pIC50 [14] of 4.80 and a pIC50 [5] of 4.51.
With CC[C@@H](CO)[C@]12O[C@H]1[C@@H]1O[C@@]13[C@@]1(C)CCC4=C(COC4=O)[C@@H]1C[C@@H]1O[C@@]13C2=O the pIC50 [4] was 8.00, the pIC50 [5] was over 7.40 and the pIC50 [8] was 6.57. For the same compound, the pIC50 [9] was 8.70.
In the case of CCCNC(=O)OCCC[C@]12O[C@H]1[C@@H]1O[C@@]13[C@@]1(C)CCC4=C(COC4=O)[C@@H]1C[C@@H]1O[C@@]13C2=O, the pIC50 [10] was 8.08.
With C[C@]12CCC3=C(COC3=O)[C@@H]1C[C@@H]1O[C@@]13C(=O)[C@@]1(CCCC(=O)O)O[C@H]1[C@@H]1O[C@]123 the pIC50 [10] was 6.25.
